Source: patent publication US20020044948A1, “Methods and compositions for co-stimulation of immunological responses to peptide antigens” (priority 2000, published 2002)

System: E7 peptide-pulsed EL4 cells
Test: Cytotoxic lymphocyte (4-hour 51Cr-release) assay on spleen cells of immunized mice
Assay type: in vivo, C57BL/6 mice
Conditions: C57BL/6 (B6) (H-2b) mice
Method: A peptide antigen formulation for use within the present example was prepared in an emulsion by a two-syringe system containing 1:1 incomplete Freund's Adjuvant with 100 μg HPV16 E7 peptide (49-57), 20 μg PCLUS-6.1 helper epitope (see, U.S. Pat. No. 5,939,074; U.S. Pat. No. 5,976,541; U.S. Pat. No. 5,030,449; U.S. Pat. No. 5,081,226; U.S. Pat. No. 5,932,218; U.S. patent application Ser. No. 08/060988, filed May 14, 1993, corresponding to EP 0 710 572 Bi; WO 94/26785; and
U.S. patent application Ser. No. 09/455,076, each incorporated herein by reference), 50,000 U IL-2, 10X PBS and double distilled water. The B7-1 expressing DNA plasmid (400 μg) was prepared in 100 μl water. […]
Procedures to measure CTL activity are well known and are described elsewhere (see, e.g. Chen et al., Cell 71:1093-1102, 1992). […] Supernatants were harvested and counted using a gamma counter. The percentage of specific 51 Cr-release was calculated as follows: 100 X (experimental release−spontaneous release)/(maximum release−spontaneous release). Spontaneous release was determined from target cells incubated without effector cells; maximum release was determined from target cells incubated in the presence of 1% Triton X-100.

HPV16 E7 peptide(49-57): H2Db binding antigenic peptide of human papilloma virus 16 E7 protein, residues 49-57 (RAHYNIVTF; UniProt P03129 49-57, looked up, fragment)
Immunogenicity of the peptide (in words): immunogenic
